The values that follow come from patent US6492530B1, “Amorphous form of cell cycle inhibitor having improved solubility and bioavailability” (Hoffmann-La Roche Inc., priority 2000, dated 2002).

“Also recorded” adds a separate entry of the source. A value given as a limit tells only on which side of the number the result lay.

The nature of data set [1]: Stability of the amorphous form under accelerated storage (powder X-ray diffraction). Type of data set: physicochemical. Conditions: 40° C./75% RH, closed glass vial for 6 months, independent of form stabilizers; FIG. 5.
Data set [2] in a line: Two-stage dissolution method (water, then 6% SLS in phosphate buffer pH 6.8). The note with it: FIG. 6 dissolution profile, Example IIA versus Example IIIA. Type of data set: physicochemical. How it is done:
The formulation of Example IIIA containing crystalline compound of formula I (Example IIIA) and the formulation of (Example IIA) containing amorphous compound of formula I were evaluated for dissolution by a two-stage (two dissolution media) dissolution method. At Stage I, 300 mL of deionized water at 37°±0.5° C. using paddles at 75 rpm was used. At Stage II, 600 mL of 6% w/v Sodium Lauryl Sulfate in 0.015M Phosphate Buffer, pH 6.8 equilibrated at 37°±0.5° C., was carefully added into the dissolution vessel 25 minutes after the Stage I dissolution was initiated. Sample aliquots were taken at different time intervals and analyzed by UV spectrophotometry.

A short description of data set [3]: Bioavailability / pharmacokinetics in beagle dogs after single oral dose. Type of data set: in vivo. How it is done: Additionally, preparations containing crystalline compound of formula I (Examples IIIB and IIIC) and amorphous compound of formula I (Example IIA) were evaluated for bioavailability in beagle dogs with body weight of approximately 10 kg. Each dog was given a formulation containing 90 mg of compound of formula I. Blood samples were collected from each dog prior to dosing (0 h) and at 0.5, 1, 2, 4, 6, 8, 12, 24, 36 and 48 hours after dosing. EDTA was used as an anticoagulant. Each plasma sample was separated after cold centrifugation and frozen in an amber vial at a minimum of −60° C. before analysis. Compound of formula I was extracted from plasma and the plasma concentration of compound of formula I was determined using a positive ion TurbolonSpray LC-MS/MS assay[HPLC using HP1100 LC system, Hewleft-Packard, Inc. (Agilent Technologies, Wilmington, Del.) and Mass Spectrometer using PE-Sciex API-3+ (Perkin-Elmer Instruments, Wilton, Conn.), Ionization mode: Turbulonspray, 500C, positive ion] The calibration range was 1 to 1,000 ng/mL using a 100-μL plasma sample. […]

Data set [4] can be described thus: physchem. The note with it: aqueous media at physiological pHs, aqueous buffer. From the text: A crystalline form of the compound of formula I is known. See, e.g., U.S. Pat. No. Re. 36,736. […] (Id. column 22, lines 5-6). […] See, e.g. U.S. Pat. No. 6,048,887 and EP 0 988,863.

Regarding `Cn1cc(C2=C(c3cn(C)c4cc([N+](=O)[O-])ccc34)C(=O)NC2=O)c2ccccc21` [amorphous compound of formula I, 3-(1-methyl-3-indolyl)-4-(1-methyl-6-nitro-3-indolyl)-1H-pyrrole-2,5,-dione], the “retention of amorphous form on storage” value in data set [1] is reported as “maintained its amorphous properties; also recorded: remained in its amorphous form”. The “solubility versus crystalline form” value in data set [2] is “much more soluble”. Moreover, the “bioavailability as compared to the crystalline form” value in data set [3] (amorphous versus crystalline form) is reported as “approximately 15 fold”.

In the case of `Cn1cc(C2=C(c3cn(C)c4cc([N+](=O)[O-])ccc34)C(=O)NC2=O)c2ccccc21` [crystalline compound of formula I, 3-(1-methyl-3-indolyl)-4-(1-methyl-6-nitro-3-indolyl)-1H-pyrrole-2,5,-dione, reference compound], the solubility in data set [4] is under 10 µg/mL. The bioavailability in data set [3] (dog, in vivo, in dogs, previously known crystalline form (background statement)) is under 5%.

Usually solubility stands for the dissolved amount per volume that the medium holds. Low readings indicate a poorly soluble substance, high ones a readily soluble substance. A word on the bioavailability: it is the share of a dose that reaches the circulation, judged against a reference dose that is usually intravenous.
